Assay results from patent US20110172097A1, “Imidazole and Triazole Compounds, Their Use and Agents Containing The Same” (BASF SE, priority 2008, published 2011).

Key:
Pyricularia oryzae = format: cell-based; conditions: day 7, 405 nm, active compound-free control = 100%
Phakopsora pachyrhizi = assay: Example G1 - Curative activity against soybean rust caused by Phakopsora pachyrhizi (greenhouse); format: in vivo, Phakopsora pachyrhizi on soybean seedlings; conditions: 300 ppm, curative spray 24 h after inoculation, assessed after 14 days, untreated plants 90% infected
Septoria tritici = assay: CG1 - Protective activity against Septoria leaf spot of wheat caused by Septoria tritici (greenhouse); format: in vivo, Septoria tritici on wheat seedlings; conditions: protective spray 24 h before inoculation, assessed after 21 days, % infection of total leaf area, untreated control 90
Method: Subsequently, it was made up to 100 ml with water. This stock solution was diluted with the described solvent/emulsifier/water mixture to the active compound concentration indicated below. Alternatively, the active compounds were used as a commercially available ready-to-use solution and diluted with water to the active compound concentration indicated. CG1 Protective Activity Against Septoria Leaf Spot of Wheat Caused by Septoria tritici Leaves of potted wheat seedlings were sprayed to run off point with an aqueous suspension having the active compound concentration stated below. 24 hours after the spray coating had dried on, they were inoculated with an aqueous spore suspension of Septoria tritici. The test plants were then placed in a greenhouse at temperatures between 18 and 22° C. and a relative atmospheric humidity close to 100% for 4 days and then at temperatures between 18 and 22° C. and an atmospheric humidity of about 70%. After 21 days, the extent of the development of the disease was determined visually in % infection of the total leaf area.

CC(C)(CCCC(C(O)C(C)(C)C)n1cncn1)c1ccccc1 (centres unmarked) [I.A1a, 2,2,8-trimethyl-8-phenyl-4-[1,2,4]triazol-1-ylnonan-3-ol]
Growth (%) at 31 ppm CM1 (Pyricularia oryzae): 26%

CC(C)(CCCC(C(O)C(C)(C)C)n1cncn1)c1ccccc1 (centres unmarked) [I.A1b, 2,2,8-trimethyl-8-phenyl-4-[1,2,4]triazol-1-ylnonan-3-ol]
extent of the rust fungus development on the leaves in % infection (Phakopsora pachyrhizi): 0%

CC(C)(C)C(O)C(CCCCc1ccc(F)cc1)n1cncn1 (centres unmarked) [I.A5a, 8-(4-fluorophenyl)-2,2-dimethyl-4-[1,2,4]triazol-1-yloctan-3-ol]
Infection (%) at 600 ppm CG1 (Septoria tritici): 10%

CC(C)(C)C(O)C(CCCCc1ccc(Cl)cc1)n1cncn1 (centres unmarked) [reference compound]
Infection (%) at 600 ppm CG1 (Septoria tritici): 40%

CC(C)(C)C(O)C(CCCCc1ccccc1)n1cncn1 (centres unmarked) [reference compound]
Growth (%) at 31 ppm CM1 (Pyricularia oryzae): 61%
